# Data taken from PubChem BioAssay AID330 (DTP/NCI, 2004).
# Inconclusive results and toxic doses are left out.
# Test system: P388 leukemia ip, CD2F1 mice, survival T/C
# Experiment: NCI In Vivo Anticancer Drug Screen. Data for tumor model P388 Leukemia (intraperitoneal) in CD2F1 (CDF1) mice
# Conditions: endpoint: median survival time, higher = longer survival
# In short: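 Mice carrying the transplanted tumor received test compound or vehicle. Survival was recorded in each group, and the value is the treated-group measurement divided by that of the vehicle-treated control group.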
# [1] = dose: 25.0 mg/kg/injection, schedule: Q01DX005 (ip), vehicle: saline with Tween-80
# [2] = dose: 50.0 mg/kg/injection, schedule: Q01DX005 (ip), vehicle: saline with Tween-80
# [3] = dose: 100.0 mg/kg/injection, schedule: Q01DX005 (ip), vehicle: saline with Tween-80
# [4] = dose: 200.0 mg/kg/injection, schedule: Q01DX005 (ip), vehicle: saline with Tween-80
# [5] = dose: 50.0 mg/kg/injection, schedule: Q01DX009 (ip), vehicle: saline with Tween-80
# [6] = dose: 100.0 mg/kg/injection, schedule: Q01DX009 (ip), vehicle: saline with Tween-80
# [7] = dose: 200.0 mg/kg/injection, schedule: Q01DX009 (ip), vehicle: saline with Tween-80
# [8] = dose: 100.0 mg/kg/injection, schedule: Q04DX003 (ip), vehicle: saline with Tween-80
# [9] = dose: 200.0 mg/kg/injection, schedule: Q04DX003 (ip), vehicle: saline with Tween-80
# [10] = dose: 25.0 mg/kg/injection, schedule: Q01DX009 (ip), vehicle: saline with Tween-80
# [11] = dose: 50.0 mg/kg/injection, schedule: Q01DX009 (ip), vehicle: Klucel (hydroxypropylcellulose) (HPC)
# [12] = dose: 100.0 mg/kg/injection, schedule: Q01DX009 (ip), vehicle: Klucel (hydroxypropylcellulose) (HPC)
# [13] = dose: 200.0 mg/kg/injection, schedule: Q01DX009 (ip), vehicle: Klucel (hydroxypropylcellulose) (HPC)
# [14] = dose: 60.0 mg/kg/injection, schedule: Q01DX005 (ip), vehicle: saline with Tween-80
# [15] = dose: 120.0 mg/kg/injection, schedule: Q01DX005 (ip), vehicle: saline with Tween-80
# [16] = dose: 240.0 mg/kg/injection, schedule: Q01DX005 (ip), vehicle: saline with Tween-80
smiles,measurement,setting,value
CC12CCC(C=C1N1CCOCC1)C(C)(C)O2 (configuration not stated),T/C,[1],97 % of control
same,T/C,"dose: 25.0 mg/kg/injection, schedule: Q01DX005 (ip), vehicle: saline",100 % of control
same,T/C,[2],103 % of control
same,T/C,"dose: 50.0 mg/kg/injection, schedule: Q01DX005 (ip), vehicle: saline",102 % of control
same,T/C,[3],94 % of control
same,T/C,"dose: 100.0 mg/kg/injection, schedule: Q01DX005 (ip), vehicle: saline",100 % of control
same,T/C,[4],94 % of control
same,T/C,"dose: 200.0 mg/kg/injection, schedule: Q01DX005 (ip), vehicle: saline",99 % of control
O=P(c1ccccc1)(c1ccccc1)c1ccccc1.O=P(c1ccccc1)(c1ccccc1)c1ccccc1.O=S(=O)(O)O.[Ni],T/C,"dose: 6.25 mg/kg/injection, schedule: Q01DX009 (ip), vehicle: Klucel (hydroxypropylcellulose) (HPC)",99 % of control
same,T/C,"dose: 12.5 mg/kg/injection, schedule: Q01DX009 (ip), vehicle: Klucel (hydroxypropylcellulose) (HPC)",111 % of control
same,T/C,"dose: 25.0 mg/kg/injection, schedule: Q01DX009 (ip), vehicle: Klucel (hydroxypropylcellulose) (HPC)",107 % of control
COc1cc(/C=C2\N=C(c3cc(OC)c(OC)c(OC)c3)OC2=O)ccc1O,T/C,[5],91 % of control
same,T/C,[6],95 % of control
same,T/C,[7],105 % of control
CC1=C(/C=C/C(C)=C/C=C/C(C)=C/CO)C(C)(C)CCC1,T/C,[2],98 % of control
same,T/C,[3],94 % of control
same,T/C,[8],100 % of control
same,T/C,[4],116 % of control
same,T/C,[9],100 % of control
O=NN(CCF)C(=O)NCCF,T/C,"dose: 0.11 mg/kg/injection, schedule: Q01DX009 (ip), vehicle: saline",109 % of control
same,T/C,"dose: 0.16 mg/kg/injection, schedule: Q01DX009 (ip), vehicle: saline",109 % of control
same,T/C,"dose: 0.25 mg/kg/injection, schedule: Q01DX009 (ip), vehicle: saline",122 % of control
same,T/C,"dose: 2.5 mg/kg/injection, schedule: Q01DX009 (ip), vehicle: saline",236 % of control
O=C1c2ccccc2C(O)(C#Cc2ccccc2)c2c1oc1c2ccc2ccccc21 (configuration not stated),T/C,"dose: 12.5 mg/kg/injection, schedule: Q01DX009 (ip), vehicle: saline with Tween-80",97 % of control
same,T/C,[10],92 % of control
same,T/C,[5],90 % of control
same,T/C,[6],108 % of control
CO[C@H]1/C=C/O[C@@]2(C)Oc3c(C)c(O)c4c(O)c(c(/C=N/N5CCNCC5)c(O)c4c3C2=O)NC(=O)/C(C)=C\C=C\[C@H](C)[C@H](O)[C@@H](C)[C@@H](O)[C@@H](C)C(OC(C)=O)[C@@H]1C (some centres not stated),T/C,[6],95 % of control
same,T/C,[8],91 % of control
same,T/C,[7],104 % of control
same,T/C,[9],91 % of control
same,T/C,"dose: 400.0 mg/kg/injection, schedule: Q04DX003 (ip), vehicle: saline with Tween-80",100 % of control
COC(=O)C(Cc1ccccc1)NC(=O)C(Cc1c[nH]c2ccccc12)NC(=O)OC(C)(C)C (configuration not stated),T/C,[11],95 % of control
same,T/C,[12],87 % of control
same,T/C,[13],108 % of control
COc1cc2c(c3c1C(=O)c1c(cc4c(c1O)C(OC1OC(C)C(OC)C(C)(OC)C1OC)CC(C)(O)C4)C3=O)OC1OC2(C)C(O)C(N(C)C)C1O (configuration not stated),T/C,"dose: 5.0 mg/kg/injection, schedule: Q01DX009 (ip), vehicle: other",153 % of control
same,T/C,"dose: 10.0 mg/kg/injection, schedule: Q01DX009 (ip), vehicle: other",159 % of control
same,T/C,"dose: 20.0 mg/kg/injection, schedule: Q01DX009 (ip), vehicle: other",168 % of control
C/[N+]([O-])=C/c1ccccc1,T/C,"dose: 100.0 mg/kg/injection, schedule: Q04DX003 (ip), vehicle: Klucel (hydroxypropylcellulose) (HPC)",104 % of control
same,T/C,"dose: 200.0 mg/kg/injection, schedule: Q04DX003 (ip), vehicle: Klucel (hydroxypropylcellulose) (HPC)",106 % of control
same,T/C,"dose: 400.0 mg/kg/injection, schedule: Q04DX003 (ip), vehicle: Klucel (hydroxypropylcellulose) (HPC)",108 % of control
CCCCN(CCCC)CCC(=O)c1ccc(Cl)c2ccccc12,T/C,[1],97 % of control
same,T/C,[2],105 % of control
Cc1ccc(S(=O)(=O)CC(=O)CC(=O)C(=O)Nc2ccc(Cl)cc2Cl)cc1,T/C,[14],100 % of control
same,T/C,[15],100 % of control
same,T/C,[16],100 % of control
O=C(NC(=O)Nc1ccc(Cl)cc1)NC(=O)c1ccccc1F,T/C,[5],114 % of control
same,T/C,[6],101 % of control
same,T/C,[7],95 % of control
C1OCOCO1,T/C,"dose: 25.0 mg/kg/injection, schedule: Q01DX005 (ip), vehicle: Klucel (hydroxypropylcellulose) (HPC)",98 % of control
same,T/C,"dose: 50.0 mg/kg/injection, schedule: Q01DX005 (ip), vehicle: Klucel (hydroxypropylcellulose) (HPC)",95 % of control
same,T/C,"dose: 100.0 mg/kg/injection, schedule: Q01DX005 (ip), vehicle: Klucel (hydroxypropylcellulose) (HPC)",95 % of control
same,T/C,"dose: 200.0 mg/kg/injection, schedule: Q01DX005 (ip), vehicle: Klucel (hydroxypropylcellulose) (HPC)",109 % of control
same,T/C,"dose: 400.0 mg/kg/injection, schedule: Q01DX005 (ip), vehicle: Klucel (hydroxypropylcellulose) (HPC)",101 % of control
O=C(Nc1cccc(C(=O)Nc2ccc(S(=O)(=O)O)c3cc(S(=O)(=O)O)cc(S(=O)(=O)O)c23)c1)Nc1cccc(C(=O)Nc2cccc3c(S(=O)(=O)O)c(S(=O)(=O)O)cc(S(=O)(=O)O)c23)c1,T/C,"dose: 60.0 mg/kg/injection, schedule: Q01DX005 (ip), vehicle: saline",88 % of control
same,T/C,"dose: 120.0 mg/kg/injection, schedule: Q01DX005 (ip), vehicle: saline",99 % of control
same,T/C,"dose: 240.0 mg/kg/injection, schedule: Q01DX005 (ip), vehicle: saline",93 % of control
O=C1CCC(c2n[nH]c(=S)n2-c2ccccc2)N1 (configuration not stated),T/C,[14],100 % of control
same,T/C,[15],97 % of control
same,T/C,[16],94 % of control
CC(=O)OC1CC2C(C)(C)C(=O)C3OC3C2(C)C2CCC3(C)C(c4ccoc4)C(=O)C4OC43C12C (configuration not stated),T/C,"dose: 0.38 mg/kg/injection, schedule: Q01DX005 (ip), vehicle: Klucel (hydroxypropylcellulose) (HPC)",100 % of control
same,T/C,"dose: 0.75 mg/kg/injection, schedule: Q01DX005 (ip), vehicle: Klucel (hydroxypropylcellulose) (HPC)",100 % of control
same,T/C,"dose: 1.5 mg/kg/injection, schedule: Q01DX005 (ip), vehicle: Klucel (hydroxypropylcellulose) (HPC)",100 % of control
same,T/C,"dose: 3.0 mg/kg/injection, schedule: Q01DX005 (ip), vehicle: Klucel (hydroxypropylcellulose) (HPC)",100 % of control
same,T/C,"dose: 6.0 mg/kg/injection, schedule: Q01DX005 (ip), vehicle: Klucel (hydroxypropylcellulose) (HPC)",106 % of control
COc1ccc(C(O)Cc2ccccc2)cc1 (configuration not stated),T/C,"dose: 31.25 mg/kg/injection, schedule: Q01DX009 (ip), vehicle: saline + Tween-80 + alcohol",93 % of control
same,T/C,"dose: 62.5 mg/kg/injection, schedule: Q01DX009 (ip), vehicle: saline + Tween-80 + alcohol",91 % of control
same,T/C,"dose: 125.0 mg/kg/injection, schedule: Q01DX009 (ip), vehicle: saline + Tween-80 + alcohol",91 % of control
same,T/C,"dose: 250.0 mg/kg/injection, schedule: Q01DX009 (ip), vehicle: saline + Tween-80 + alcohol",89 % of control
CCOC(=O)c1ccc(NC(=O)CS)cc1,T/C,[10],98 % of control
same,T/C,[5],99 % of control
same,T/C,[6],102 % of control
same,T/C,[7],108 % of control
Cc1cc(N=[N+]=[N-])c2cc3c(cc2n1)OCO3,T/C,[14],103 % of control
same,T/C,[15],95 % of control
same,T/C,[16],94 % of control
O=C1NC(=O)C2(c3ccccc3)CCN1C2=O (configuration not stated),T/C,[11],103 % of control
same,T/C,[12],110 % of control
same,T/C,[13],104 % of control
O=Cc1ccc2c(c1)C(O)NC(=O)O2 (configuration not stated),T/C,[2],100 % of control
same,T/C,[3],101 % of control
COc1ccc2ccccc2c1CC(C)O (configuration not stated),T/C,[2],101 % of control
same,T/C,[3],98 % of control
same,T/C,[4],102 % of control
CC1NC(C)c2c(ccc3ccccc23)O1 (configuration not stated),T/C,[2],100 % of control
same,T/C,[3],100 % of control
same,T/C,[4],97 % of control
